For one data set, the system named is tumor. Particulars: background art, in words; cited from earlier work.
For the next data set, the system named is VX-2 tumor cells. Conditions: for Normal region counts / Tumor counts: 1.5 mCi i.v. The procedure:
Further, ^99mTc-labeled radiopharmaceuticals were tested for their stability in a physiological saline and the human plasma with the lapse of time (see Example 4). […] The radiopharmaceuticals of the present invention were tested for biodistribution and the uptake level in rabbits transplanted with VX-2 tumor cells and then, compared with ^99mTc-MIBI currently used for imaging tumor in nuclear medicine (see Example 5). More specifically, ^99mTc-labeled glucose derivatives were injected to rabbits transplanted with tumor cells to obtain image using gamma camera. Then, the organs were removed to measure biodistribution and the uptake level of radiopharmaceuticals by calculating % ID (injected dose)/g, indicative of the uptake level of the injected radiopharmaceuticals per weight of tissues.
VX-2 tumor cells were ground in 2 ml of a physiological saline and then, transplanted via intramuscular injection to the right thigh muscle of three rabbits (New Zealand White species) weighing 2.5 to 3 kg using a syringe. Then, the rabbits were bred for 3 weeks to grow tumor to have a diameter of 2 to 3 cm. […] After injection, the rabbits were laid down under gamma camera and the gamma camera was controlled to cover the whole body and images were obtained for 15 minutes at 1 and 3 hours after injection, respectively.
The image of ^99mTc-MIBI was obtained at 10 minutes after injection. […] It is conventional that the standardized imaging time cannot be applied for radiopharmaceuticals since their physical, chemical and physiological properties all are different. Thus, the optimal imaging time may be set depending upon the employed radiopharmaceutical.
After obtaining image of the regions of interest, the uptake level of radioactivity was calculated from counts (unit of radioactivity) obtained by a particular program equipped with a gamma camera.

The nature of data set [1]: Stability test of radiopharmaceuticals in the human plasma (purity by TLC). The format is in vitro ADME. Conditions: room temperature, mean of 3 experiments. Here is the method: (§1) The stability of radiopharmaceuticals was expressed as the purity of radiopharmaceutical at a given time, and measured after 0, 2, 4 and 6 hrs in a physiological saline and the human plasma, respectively. […] After well stirring the ingredients in each vial, the stability was measured at given times at room temperature.
(§2) The stability was measured as follows. 5 μl of each radiopharmaceutical was deposited in the lower part of TLC and was developed using methyl ethyl ketone (or acetone) and 0.9% physiological saline, respectively. Upon completion of development, each TLC was equally divided into 2 parts and the radioactivity of each part was measured using gamma counter. The stability was calculated by measurement of the purity from the obtained radioactivity. […] The purity of radiopharmaceuticals is calculated as follows.
(§3) 100%−[(radioactivity in the upper part of TLC developed with acetone÷radioactivity in the whole TLC developed with acetone)+(radioactivity in the lower part of TLC developed with 0.9% physiological saline÷radioactivity in the whole TLC developed with 0.9% physiological saline)]×100%

A short description of data set [2]: Stability test of radiopharmaceuticals in a physiological saline (purity by TLC). The format is physicochemical. Particulars: room temperature, mean of 3 experiments. Here is the method:
as §1, §2, §3

Setting [3] is: anterior image, 10 minutes after injection (footnote).
Where [4] appears, read: posterior image, 10 minutes after injection (footnote).

This is an account of results in patent US20030120046A1, “Radioisotope-labeled complexes of glucose derivatives and kits for the preparation thereof” (priority 2000, published 2003).

Where two headings read alike, the source gives them in different places.

Regarding `[99Tc].[C-]#[N+]CC(C)(C)OC.[C-]#[N+]CC(C)(C)OC.[C-]#[N+]CC(C)(C)OC.[C-]#[N+]CC(C)(C)OC.[C-]#[N+]CC(C)(C)OC.[C-]#[N+]CC(C)(C)OC` [^99mTc-MIBI, ^99mTc-MIBI (methoxy isobutyl isonitrile)], in the data set on tumor, the “uptake rate in the abdomen” value is given as “high”, the “uptake rate in tumor” value is reported as “unsatisfactory” and the “wash-out rate in vivo” value was “high”. In the data set with VX-2 tumor cells (setting [3]), the Tumor/Normal ratio worked out at 1.7, the Normal region counts was 5829 counts and the Tumor counts is on record as 9931 counts. Besides, the “Tumor uptake/normal region uptake ratio” value in the data set with VX-2 tumor cells (anterior image, 10 minutes after injection (footnote), Mean ± S.D. from 3 experiments) was 2.22 ± 0.87. In addition, the wash-out in vivo result with VX-2 tumor cells (image cannot be practically obtained at 30 minutes or more after injection, in words) is “rapidly washed out”. Further, in the data set on VX-2 tumor cells (setting [4]), the Tumor/Normal ratio amounted to 2.0, the Normal region counts is reported as 6566 counts and the Tumor counts was 13047 counts.
Regarding ^99mTc-glucosamine, the “Purity of radiopharmaceuticals at given times” value in data set [1] (0 h) was 99.5%; in data set [1] (2 h) it was 95.4%; in data set [1] (4 h) it was 95.0%; in data set [1] (6 h), 92.4%; in data set [2] (0 h), 99.5%; in data set [2] (2 h) it was 98.9%. Moreover, the figures for the “Purity of radiopharmaceuticals at given times” value in data set [2] (4 h) and in data set [2] (6 h) were 98.0% and 97.6%, respectively.
